Earlier results, collected in patent publication US20250231185A1, “Coronavirus T Cell Epitopes, Megapools and Uses Thereof” (La Jolla Institute for Immunology, priority 2021, published 2025).
Where two headings read alike, the source gives them in different places.

Test system: CD8+ T cells
Details: cited from earlier work
[1] = CD8R (D) megapool epitopes, dominant = recognized by 3 or more donors/different studies
[2] = SARS-CoV-2 Ag S, T cell type recognizing the epitope
[3] = CD8RE megapool peptides (non-spike SARS-CoV-2 antigens), dominant epitope Yes/No
[4] = T cell type (CD4 or CD8) recognizing the SARS-CoV-2 epitope
[5] = T cell subset (CD4 or CD8) recognizing the SARS-CoV-2-derived epitope
[6] = SARS-CoV-2-derived CD8 epitopes, dominant = recognized by 3 or more donors/different studies

1710 (FSKQLQQSM) [compound 1710]
Dominant [1]: Yes (more dominant epitopes are defined by being recognized by 3 or more donors/different studies)

1464 (CMTSCCSCLK) [compound 1464]
Restriction [2]: CD8

2994 (KLVNKFLAL) [compound 2994]
Dominant [3]: Yes (more dominant epitopes are defined by being recognized by 3 or more donors/different studies)

1096 (YVMHANYIF) [compound 1096]
Restriction [4]: CD8

564 (IPVAYRKVLL) [compound 564]
Restriction [5]: CD8

932 (TLKEILVTY) [compound 932]
Restriction [4]: CD8

1344 (YECDIPIGAGI) [compound 1344]
Restriction [2]: CD8

1777 (TSEDMLNPNY) [compound 1777]
Dominant [1]: Yes (more dominant epitopes are defined by being recognized by 3 or more donors/different studies)

1388 (TDEMIAQY) [compound 1388]
Restriction [2]: CD8

2973 (VYIGDPAQL) [compound 2973]
Dominant [3]: Yes (more dominant epitopes are defined by being recognized by 3 or more donors/different studies)

2987 (LLLDDFVEII) [compound 2987]
Dominant [3]: Yes (more dominant epitopes are defined by being recognized by 3 or more donors/different studies)

632 (QEILGTVSW) [compound 632]
Dominant [6]: Yes (more dominant epitopes are defined by being recognized by 3 or more donors/different studies) | Restriction [5]: CD8

1815 (IMLIIFWFSL) [compound 1815]
Dominant [1]: Yes (more dominant epitopes are defined by being recognized by 3 or more donors/different studies)

2938 (GMSRIGMEV) [compound 2938]
Dominant [3]: Yes (more dominant epitopes are defined by being recognized by 3 or more donors/different studies)

1063 (SLYVNKHAF) [compound 1063]
Restriction [4]: CD8

652 (NINLHTQVV) [compound 652]
Restriction [5]: CD8

687 (CTEIDPKLDNY) [compound 687]
Dominant [6]: Yes (more dominant epitopes are defined by being recognized by 3 or more donors/different studies) | Restriction [5]: CD8

1079 (FIERYKLEGY) [compound 1079]
Restriction [4]: CD8

979 (ATVVIGTSK) [compound 979]
Restriction [4]: CD8

1783 (FLNRFTTTL) [compound 1783]
Dominant [1]: Yes (more dominant epitopes are defined by being recognized by 3 or more donors/different studies)

565 (TFNGECPNF) [compound 565]
Restriction [5]: CD8

1467 (EPVLKGVKL) [compound 1467]
Restriction [2]: CD8

3049 (VFITLCFTLK) [compound 3049]
Dominant [3]: Yes (more dominant epitopes are defined by being recognized by 3 or more donors/different studies)

1680 (RYRIGNYKL) [compound 1680]
Dominant [1]: Yes (more dominant epitopes are defined by being recognized by 3 or more donors/different studies)

2965 (LVLSVNPYV) [compound 2965]
Dominant [3]: Yes (more dominant epitopes are defined by being recognized by 3 or more donors/different studies)

988 (RLANECAQV) [compound 988]
Restriction [4]: CD8

3022 (KLKDCVMYA) [compound 3022]
Dominant [3]: Yes (more dominant epitopes are defined by being recognized by 3 or more donors/different studies)

598 (LEFGATSAAL) [compound 598]
Restriction [5]: CD8

986 (IMASLVLAR) [compound 986]
Restriction [4]: CD8

518 (LALLLLDRL) [compound 518]
Dominant [6]: Yes (more dominant epitopes are defined by being recognized by 3 or more donors/different studies) | Restriction [5]: CD8

1456 (LQELGKYEQY) [compound 1456]
Restriction [2]: CD8

1420 (RVDFCGKGY) [compound 1420]
Restriction [2]: CD8

2985 (NLWNTFTRL) [compound 2985]
Dominant [3]: Yes (more dominant epitopes are defined by being recognized by 3 or more donors/different studies)

2989 (GVAMPNLYK) [compound 2989]
Dominant [3]: Yes (more dominant epitopes are defined by being recognized by 3 or more donors/different studies)

1301 (VGGNYNYLY) [compound 1301]
Restriction [2]: CD8

647 (HLDGEVITF) [compound 647]
Restriction [5]: CD8

1059 (YKIEELFYSY) [compound 1059]
Restriction [4]: CD8

515 (AEGSRGGSQA) [compound 515]
Restriction [5]: CD8

1684 (FPRGQGVPI) [compound 1684]
Dominant [1]: Yes (more dominant epitopes are defined by being recognized by 3 or more donors/different studies)

618 (KLVSSFLEM) [compound 618]
Restriction [5]: CD8

1372 (EVFAQVKQI) [compound 1372]
Restriction [2]: CD8

2961 (RILGAGCFV) [compound 2961]
Dominant [3]: Yes (more dominant epitopes are defined by being recognized by 3 or more donors/different studies)

1688 (LSPRWYFYYL) [compound 1688]
Dominant [1]: Yes (more dominant epitopes are defined by being recognized by 3 or more donors/different studies)

3037 (IPIQASLPF) [compound 3037]
Dominant [3]: Yes (more dominant epitopes are defined by being recognized by 3 or more donors/different studies)

1308 (KPFERDISTEI) [compound 1308]
Restriction [2]: CD8

1369 (TQLNRALTGI) [compound 1369]
Restriction [2]: CD8

1674 (RLFARTRSMW) [compound 1674]
Dominant [1]: Yes (more dominant epitopes are defined by being recognized by 3 or more donors/different studies)

1768 (ASMPTTIAK) [compound 1768]
Dominant [1]: Yes (more dominant epitopes are defined by being recognized by 3 or more donors/different studies)

1457 (QELGKYEQY) [compound 1457]
Restriction [2]: CD8

2993 (KTIQPRVEK) [compound 2993]
Dominant [3]: Yes (more dominant epitopes are defined by being recognized by 3 or more donors/different studies)

1455 (SLIDLQEL) [compound 1455]
Restriction [2]: CD8

588 (FELDERIDKVL) [compound 588]
Restriction [5]: CD8

1721 (VVDKYFDCY) [compound 1721]
Dominant [1]: Yes (more dominant epitopes are defined by being recognized by 3 or more donors/different studies)

581 (APKEIIFL) [compound 581]
Restriction [5]: CD8

3011 (FLLNKEMYL) [compound 3011]
Dominant [3]: Yes (more dominant epitopes are defined by being recognized by 3 or more donors/different studies)

1341 (STGSNVFQTR) [compound 1341]
Restriction [2]: CD8

1412 (ITGRLQSLQTY) [compound 1412]
Restriction [2]: CD8

1382 (ADAGFIKQY) [compound 1382]
Restriction [2]: CD8

1809 (YYQLYSTQL) [compound 1809]
Dominant [1]: Yes (more dominant epitopes are defined by being recognized by 3 or more donors/different studies)

644 (YYTSNPTTF) [compound 644]
Restriction [5]: CD8

2927 (NPANNAAIVL) [compound 2927]
Dominant [3]: Yes (more dominant epitopes are defined by being recognized by 3 or more donors/different studies)

1713 (DLKGKYVQI) [compound 1713]
Dominant [1]: Yes (more dominant epitopes are defined by being recognized by 3 or more donors/different studies)

1723 (MVMCGGSLYV) [compound 1723]
Dominant [1]: Yes (more dominant epitopes are defined by being recognized by 3 or more donors/different studies)

3007 (STFNVPMEK) [compound 3007]
Dominant [3]: Yes (more dominant epitopes are defined by being recognized by 3 or more donors/different studies)

1414 (RLQSLQTY) [compound 1414]
Restriction [2]: CD8

1802 (IPIQASLPF) [compound 1802]
Dominant [1]: Yes (more dominant epitopes are defined by being recognized by 3 or more donors/different studies)

593 (YLFDESGEF) [compound 593]
Restriction [5]: CD8

3016 (GTDLEGNFY) [compound 3016]
Dominant [3]: Yes (more dominant epitopes are defined by being recognized by 3 or more donors/different studies)

3002 (NYMPYFFTL) [compound 3002]
Dominant [3]: Yes (more dominant epitopes are defined by being recognized by 3 or more donors/different studies)

587 (FELDERIDKV) [compound 587]
Restriction [5]: CD8

TTDPSFLGRY [nsp3 819-828]
positive in donors tested (Nelde et al., HLA-A*01:01 restricted): 83%

1050 (MYKGLPWNV) [compound 1050]
Restriction [4]: CD8

1450 (NASVVNIQK) [compound 1450]
Restriction [2]: CD8

1358 (IAIPTNFTI) [compound 1358]
Restriction [2]: CD8

921 (YLASGGQPI) [compound 921]
Restriction [4]: CD8

3041 (VYFLQSINF) [compound 3041]
Dominant [3]: Yes (more dominant epitopes are defined by being recognized by 3 or more donors/different studies)

942 (KPYIKWDLL) [compound 942]
Restriction [4]: CD8

514 (VLQLPQGTTL) [compound 514]
Dominant [6]: Yes (more dominant epitopes are defined by being recognized by 3 or more donors/different studies) | Restriction [5]: CD8

2946 (VLSEARQHL) [compound 2946]
Dominant [3]: Yes (more dominant epitopes are defined by being recognized by 3 or more donors/different studies)

1016 (WEPEFYEAM) [compound 1016]
Restriction [4]: CD8

508 (IIWVATEGA) [compound 508]
Restriction [5]: CD8

1790 (SEFSSLPSY) [compound 1790]
Dominant [1]: Yes (more dominant epitopes are defined by being recognized by 3 or more donors/different studies)

529 (ELIRQGTDY) [compound 529]
Restriction [5]: CD8

3000 (YLATALLTL) [compound 3000]
Dominant [3]: Yes (more dominant epitopes are defined by being recognized by 3 or more donors/different studies)

1753 (MLWCKDGHV) [compound 1753]
Dominant [1]: Yes (more dominant epitopes are defined by being recognized by 3 or more donors/different studies)

591 (VELGTEVNEF) [compound 591]
Restriction [5]: CD8
